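Method: 48-hour compound exposure of cells in 96-well plates, five concentrations, linear interpolation of endpoints. At the TGI there is no net growth.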
These compounds were tested on LXFL 529 NSCLC (assay: NCI anticancer screen, dose series, 48 h).

SMILES | TGI
Cc1nn(C(=O)CC(=O)Nc2ccc(Cl)cc2)c(C)c1N=Nc1ccccc1C(=O)O | > 100 µM
Cc1cccc2c1Sc1ccccc1C2NC(=O)CCN(C)C (configuration not stated) | > 100 µM
CC(Oc1ccc(OCC2CCCCC2)cc1)C(=O)OCC(=O)c1ccc(-c2ccccc2)cc1 (configuration not stated) | > 100 µM
O=[N+]([O-])c1ccc(-c2cnc3ccccn23)cc1 | > 100 µM
COC12OCCN(C)C1=CC(=O)C1=NNC(C)C12 (configuration not stated) | > 100 µM

The compounds below were run on TK-10 renal (assay: NCI anticancer screen, dose series, 48 h).

SMILES | TGI
Cn1c2ccccc2c2ncc3[nH]c4ccccc4c3c21 | 45.1 µM
COc1ccc(/C=C(\C(C)=O)C(=O)Nc2ccccc2)cc1 | > 100 µM
COc1ccc(/C(Cl)=C(\C=O)c2ccc(OC)cc2)cc1 | > 100 µM
Cc1nn(C(=O)CC(=O)Nc2ccc(Cl)cc2)c(C)c1N=Nc1ccccc1C(=O)O | > 100 µM
Cc1cccc2c1Sc1ccccc1C2NC(=O)CCN(C)C (configuration not stated) | > 100 µM
CC(Oc1ccc(OCC2CCCCC2)cc1)C(=O)OCC(=O)c1ccc(-c2ccccc2)cc1 (configuration not stated) | > 100 µM
COC12OCCN(C)C1=CC(=O)C1=NNC(C)C12 (configuration not stated) | > 100 µM

What follows are compounds tested on HOP-62 NSCLC (assay: NCI anticancer screen, dose series, 48 h).

SMILES | TGI
Cn1c2ccccc2c2ncc3[nH]c4ccccc4c3c21 | > 100 µM
COc1ccc(/C=C(\C(C)=O)C(=O)Nc2ccccc2)cc1 | > 100 µM
COc1ccc(/C(Cl)=C(\C=O)c2ccc(OC)cc2)cc1 | > 100 µM
Cc1nn(C(=O)CC(=O)Nc2ccc(Cl)cc2)c(C)c1N=Nc1ccccc1C(=O)O | > 100 µM
Cc1cccc2c1Sc1ccccc1C2NC(=O)CCN(C)C (configuration not stated) | > 100 µM
O=[N+]([O-])c1ccc(-c2cnc3ccccn23)cc1 | > 100 µM

These compounds were tested on DMS 114 small cell lung (assay: NCI anticancer screen, dose series, 48 h).

SMILES | TGI
Cn1c2ccccc2c2ncc3[nH]c4ccccc4c3c21 | 54.3 µM
COc1ccc(/C=C(\C(C)=O)C(=O)Nc2ccccc2)cc1 | > 100 µM
COc1ccc(/C(Cl)=C(\C=O)c2ccc(OC)cc2)cc1 | > 100 µM
Cc1nn(C(=O)CC(=O)Nc2ccc(Cl)cc2)c(C)c1N=Nc1ccccc1C(=O)O | > 100 µM
Cc1cccc2c1Sc1ccccc1C2NC(=O)CCN(C)C (configuration not stated) | > 100 µM
CC(Oc1ccc(OCC2CCCCC2)cc1)C(=O)OCC(=O)c1ccc(-c2ccccc2)cc1 (configuration not stated) | > 100 µM
O=[N+]([O-])c1ccc(-c2cnc3ccccn23)cc1 | > 100 µM
COC12OCCN(C)C1=CC(=O)C1=NNC(C)C12 (configuration not stated) | > 100 µM

These compounds were tested on HL-60(TB) leukemia (assay: NCI anticancer screen, dose series, 48 h).

SMILES | TGI
Cn1c2ccccc2c2ncc3[nH]c4ccccc4c3c21 | 41.3 µM
COc1ccc(/C=C(\C(C)=O)C(=O)Nc2ccccc2)cc1 | > 100 µM
COc1ccc(/C(Cl)=C(\C=O)c2ccc(OC)cc2)cc1 | 80.9 µM
Cc1nn(C(=O)CC(=O)Nc2ccc(Cl)cc2)c(C)c1N=Nc1ccccc1C(=O)O | > 100 µM
Cc1cccc2c1Sc1ccccc1C2NC(=O)CCN(C)C (configuration not stated) | > 100 µM
CC(Oc1ccc(OCC2CCCCC2)cc1)C(=O)OCC(=O)c1ccc(-c2ccccc2)cc1 (configuration not stated) | > 100 µM
O=[N+]([O-])c1ccc(-c2cnc3ccccn23)cc1 | > 100 µM
COC12OCCN(C)C1=CC(=O)C1=NNC(C)C12 (configuration not stated) | > 100 µM

What follows are compounds tested on LOX IMVI melanoma (assay: NCI anticancer screen, dose series, 48 h).

SMILES | TGI
Cn1c2ccccc2c2ncc3[nH]c4ccccc4c3c21 | 56.2 µM
COc1ccc(/C=C(\C(C)=O)C(=O)Nc2ccccc2)cc1 | > 100 µM
COc1ccc(/C(Cl)=C(\C=O)c2ccc(OC)cc2)cc1 | > 100 µM
Cc1nn(C(=O)CC(=O)Nc2ccc(Cl)cc2)c(C)c1N=Nc1ccccc1C(=O)O | > 100 µM
Cc1cccc2c1Sc1ccccc1C2NC(=O)CCN(C)C (configuration not stated) | > 100 µM
CC(Oc1ccc(OCC2CCCCC2)cc1)C(=O)OCC(=O)c1ccc(-c2ccccc2)cc1 (configuration not stated) | > 100 µM
O=[N+]([O-])c1ccc(-c2cnc3ccccn23)cc1 | > 100 µM
COC12OCCN(C)C1=CC(=O)C1=NNC(C)C12 (configuration not stated) | > 100 µM

What follows are compounds tested on NCI-H23 lung (assay: NCI anticancer screen, dose series, 48 h).

SMILES | TGI
Cn1c2ccccc2c2ncc3[nH]c4ccccc4c3c21 | 43.7 µM
COc1ccc(/C=C(\C(C)=O)C(=O)Nc2ccccc2)cc1 | > 100 µM
COc1ccc(/C(Cl)=C(\C=O)c2ccc(OC)cc2)cc1 | > 100 µM
Cc1nn(C(=O)CC(=O)Nc2ccc(Cl)cc2)c(C)c1N=Nc1ccccc1C(=O)O | > 100 µM
Cc1cccc2c1Sc1ccccc1C2NC(=O)CCN(C)C (configuration not stated) | > 100 µM
CC(Oc1ccc(OCC2CCCCC2)cc1)C(=O)OCC(=O)c1ccc(-c2ccccc2)cc1 (configuration not stated) | > 100 µM
O=[N+]([O-])c1ccc(-c2cnc3ccccn23)cc1 | > 100 µM
COC12OCCN(C)C1=CC(=O)C1=NNC(C)C12 (configuration not stated) | > 100 µM

These compounds were tested on EKVX NSCLC (assay: NCI anticancer screen, dose series, 48 h).

SMILES | TGI
Cn1c2ccccc2c2ncc3[nH]c4ccccc4c3c21 | 65.6 µM
COc1ccc(/C=C(\C(C)=O)C(=O)Nc2ccccc2)cc1 | > 100 µM
COc1ccc(/C(Cl)=C(\C=O)c2ccc(OC)cc2)cc1 | > 100 µM
Cc1nn(C(=O)CC(=O)Nc2ccc(Cl)cc2)c(C)c1N=Nc1ccccc1C(=O)O | > 100 µM
Cc1cccc2c1Sc1ccccc1C2NC(=O)CCN(C)C (configuration not stated) | > 100 µM
O=[N+]([O-])c1ccc(-c2cnc3ccccn23)cc1 | > 100 µM
COC12OCCN(C)C1=CC(=O)C1=NNC(C)C12 (configuration not stated) | > 100 µM

What follows are compounds tested on OVCAR-8 ovarian (assay: NCI anticancer screen, dose series, 48 h).

SMILES | TGI
Cn1c2ccccc2c2ncc3[nH]c4ccccc4c3c21 | 52.7 µM
COc1ccc(/C=C(\C(C)=O)C(=O)Nc2ccccc2)cc1 | > 100 µM
COc1ccc(/C(Cl)=C(\C=O)c2ccc(OC)cc2)cc1 | > 100 µM
Cc1nn(C(=O)CC(=O)Nc2ccc(Cl)cc2)c(C)c1N=Nc1ccccc1C(=O)O | > 100 µM
Cc1cccc2c1Sc1ccccc1C2NC(=O)CCN(C)C (configuration not stated) | > 100 µM
CC(Oc1ccc(OCC2CCCCC2)cc1)C(=O)OCC(=O)c1ccc(-c2ccccc2)cc1 (configuration not stated) | > 100 µM
O=[N+]([O-])c1ccc(-c2cnc3ccccn23)cc1 | > 100 µM
COC12OCCN(C)C1=CC(=O)C1=NNC(C)C12 (configuration not stated) | > 100 µM

What follows are compounds tested on RPMI-8226 leukemia (assay: NCI anticancer screen, dose series, 48 h).

SMILES | TGI
Cn1c2ccccc2c2ncc3[nH]c4ccccc4c3c21 | 63 µM
COc1ccc(/C=C(\C(C)=O)C(=O)Nc2ccccc2)cc1 | > 100 µM
COc1ccc(/C(Cl)=C(\C=O)c2ccc(OC)cc2)cc1 | > 100 µM
Cc1nn(C(=O)CC(=O)Nc2ccc(Cl)cc2)c(C)c1N=Nc1ccccc1C(=O)O | > 100 µM
Cc1cccc2c1Sc1ccccc1C2NC(=O)CCN(C)C (configuration not stated) | > 100 µM
O=[N+]([O-])c1ccc(-c2cnc3ccccn23)cc1 | > 100 µM
COC12OCCN(C)C1=CC(=O)C1=NNC(C)C12 (configuration not stated) | > 100 µM

What follows are compounds tested on UO-31 renal (assay: NCI anticancer screen, dose series, 48 h).

SMILES | TGI
Cn1c2ccccc2c2ncc3[nH]c4ccccc4c3c21 | 26.9 µM
COc1ccc(/C=C(\C(C)=O)C(=O)Nc2ccccc2)cc1 | > 100 µM
COc1ccc(/C(Cl)=C(\C=O)c2ccc(OC)cc2)cc1 | > 100 µM
Cc1nn(C(=O)CC(=O)Nc2ccc(Cl)cc2)c(C)c1N=Nc1ccccc1C(=O)O | > 100 µM
Cc1cccc2c1Sc1ccccc1C2NC(=O)CCN(C)C (configuration not stated) | > 100 µM
CC(Oc1ccc(OCC2CCCCC2)cc1)C(=O)OCC(=O)c1ccc(-c2ccccc2)cc1 (configuration not stated) | > 100 µM
O=[N+]([O-])c1ccc(-c2cnc3ccccn23)cc1 | > 100 µM
COC12OCCN(C)C1=CC(=O)C1=NNC(C)C12 (configuration not stated) | > 100 µM

These compounds were tested on RXF 393 renal (assay: NCI anticancer screen, dose series, 48 h).

SMILES | TGI
Cn1c2ccccc2c2ncc3[nH]c4ccccc4c3c21 | 30.6 µM
COc1ccc(/C=C(\C(C)=O)C(=O)Nc2ccccc2)cc1 | > 100 µM
COc1ccc(/C(Cl)=C(\C=O)c2ccc(OC)cc2)cc1 | > 100 µM
Cc1cccc2c1Sc1ccccc1C2NC(=O)CCN(C)C (configuration not stated) | > 100 µM
CC(Oc1ccc(OCC2CCCCC2)cc1)C(=O)OCC(=O)c1ccc(-c2ccccc2)cc1 (configuration not stated) | > 100 µM
O=[N+]([O-])c1ccc(-c2cnc3ccccn23)cc1 | > 100 µM
COC12OCCN(C)C1=CC(=O)C1=NNC(C)C12 (configuration not stated) | > 100 µM

The compounds below were run on SF-539 CNS (assay: NCI anticancer screen, dose series, 48 h).

SMILES | TGI
Cn1c2ccccc2c2ncc3[nH]c4ccccc4c3c21 | 32.4 µM
COc1ccc(/C=C(\C(C)=O)C(=O)Nc2ccccc2)cc1 | > 100 µM
COc1ccc(/C(Cl)=C(\C=O)c2ccc(OC)cc2)cc1 | > 100 µM
Cc1nn(C(=O)CC(=O)Nc2ccc(Cl)cc2)c(C)c1N=Nc1ccccc1C(=O)O | > 100 µM
Cc1cccc2c1Sc1ccccc1C2NC(=O)CCN(C)C (configuration not stated) | > 100 µM
CC(Oc1ccc(OCC2CCCCC2)cc1)C(=O)OCC(=O)c1ccc(-c2ccccc2)cc1 (configuration not stated) | > 100 µM
O=[N+]([O-])c1ccc(-c2cnc3ccccn23)cc1 | > 100 µM
COC12OCCN(C)C1=CC(=O)C1=NNC(C)C12 (configuration not stated) | > 100 µM

These compounds were tested on OVCAR-4 ovarian (assay: NCI anticancer screen, dose series, 48 h).

SMILES | TGI
Cn1c2ccccc2c2ncc3[nH]c4ccccc4c3c21 | 32.1 µM
COc1ccc(/C=C(\C(C)=O)C(=O)Nc2ccccc2)cc1 | > 100 µM
COc1ccc(/C(Cl)=C(\C=O)c2ccc(OC)cc2)cc1 | > 100 µM
Cc1nn(C(=O)CC(=O)Nc2ccc(Cl)cc2)c(C)c1N=Nc1ccccc1C(=O)O | > 100 µM
Cc1cccc2c1Sc1ccccc1C2NC(=O)CCN(C)C (configuration not stated) | > 100 µM
CC(Oc1ccc(OCC2CCCCC2)cc1)C(=O)OCC(=O)c1ccc(-c2ccccc2)cc1 (configuration not stated) | > 100 µM
O=[N+]([O-])c1ccc(-c2cnc3ccccn23)cc1 | > 100 µM
